We go through 29 compounds from patent US10508120B2, “TYK2 inhibitors and uses thereof” (Nimbus Lakshmi, Inc., priority 2017, dated 2019).

The Kd is a measure of binding affinity in units of concentration. Low values mean higher affinity, high ones lower affinity. For orientation: inhibition means the share of the control response that was lost under treatment.

Assay [1] deals with human TYK2 (JH2domain-pseudokinase) (Homo sapiens (Human), UniProt P29597). Kind of assay: TYK2 JH2 Domain Binding Assay (KINOMEscan). Summed up:
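The construct was human TYK2 G556–D888 fused to the NFkB DNA-binding domain and expressed in HEK293 cells; unpurified extract was incubated with compound and liganded beads for 1 hour at room temperature.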

For the next assay, the target named is Tyk2 kinase domain (DH1) (Homo sapiens (Human), UniProt P29597). The assay can be described thus: Tyk2 Radioactive Kinase Assay. The assay is classed as biochemical. The note with it: for inhibition at 10 µM: read-out: Tyk2 JH1% Inhibition @ 10 μM. An outline of the steps: (§1)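 Read-out is percent inhibition from a radioactive kinase reaction, measured with compound at 10 μM.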

The next assay addresses JAK2 kinase domain (JH1) (Homo sapiens (Human), UniProt O60674). Kind of assay: JAK2 Radioactive Kinase Assay. The assay is classed as biochemical. The note with it: for inhibition at 10 µM: read-out: JAK2 JH1% Inhibition @ 10 μM. Summed up:
as §1

Like-named read-outs stand apart in the source and are kept apart here.

JAK2 kinase domain (JH1), sequence (O60674 849-1124): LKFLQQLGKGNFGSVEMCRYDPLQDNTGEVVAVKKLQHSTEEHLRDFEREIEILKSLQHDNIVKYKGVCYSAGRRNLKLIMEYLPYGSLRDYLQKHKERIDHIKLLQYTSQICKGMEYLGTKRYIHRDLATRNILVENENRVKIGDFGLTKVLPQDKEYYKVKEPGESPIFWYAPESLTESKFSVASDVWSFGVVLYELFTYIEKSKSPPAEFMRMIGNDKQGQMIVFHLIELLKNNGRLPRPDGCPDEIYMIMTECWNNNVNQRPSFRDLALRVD
Tyk2 kinase domain (DH1), sequence (P29597 897-1176): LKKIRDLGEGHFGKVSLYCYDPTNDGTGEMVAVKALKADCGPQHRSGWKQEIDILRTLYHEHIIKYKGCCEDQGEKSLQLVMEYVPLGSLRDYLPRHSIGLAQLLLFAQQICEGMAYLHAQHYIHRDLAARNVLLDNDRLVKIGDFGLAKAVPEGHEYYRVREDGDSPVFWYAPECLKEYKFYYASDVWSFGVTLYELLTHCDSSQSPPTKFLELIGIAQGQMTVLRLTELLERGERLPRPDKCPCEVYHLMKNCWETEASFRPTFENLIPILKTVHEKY
human TYK2 (JH2domain-pseudokinase), sequence (P29597 556-888): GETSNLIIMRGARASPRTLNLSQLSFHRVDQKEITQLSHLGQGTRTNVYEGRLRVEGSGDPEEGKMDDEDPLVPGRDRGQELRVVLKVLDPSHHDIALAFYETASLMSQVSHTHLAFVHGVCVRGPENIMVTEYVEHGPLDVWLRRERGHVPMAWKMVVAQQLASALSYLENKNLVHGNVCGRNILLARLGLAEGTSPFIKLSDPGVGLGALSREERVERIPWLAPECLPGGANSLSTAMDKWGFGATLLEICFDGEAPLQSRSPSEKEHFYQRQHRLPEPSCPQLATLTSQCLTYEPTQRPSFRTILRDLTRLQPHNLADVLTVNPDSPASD

In assay [1], `CNc1cc(Nc2cc(C)cn(-c3ccn(C)n3)c2=O)nc2c(C(=O)NC3CCC3)cnn12` [I-251] yielded a Kd of under 0.2 nM. Further, the inhibition at 10 µM is under 50% at Tyk2 kinase domain (DH1) (compound at 10 μM, ATP 10 μM) and under 50% on JAK2 kinase domain (JH1) (compound at 10 μM, ATP 10 μM).
On to `CNc1cc(Nc2cccn([C@@H]3CCC[C@@H]3O)c2=O)nc2c(C(=O)NC3CC3)cnn12` [I-964], for which, in assay [1], the Kd was 1 to 10 nM. In addition, the inhibition at 10 µM at Tyk2 kinase domain (DH1) (10 μM compound, 10 μM ATP) is under 50%; at JAK2 kinase domain (JH1) (10 μM compound, 10 μM ATP), under 50%.
Take `CC(C)(O)c1cccc(-n2cccc(Nc3cc(N)n4ncc(C(N)=O)c4n3)c2=O)n1` [I-41]: the Kd in assay [1] was 1 to 10 nM. In addition, the inhibition at 10 µM is under 50% at Tyk2 kinase domain (DH1) (compound at 10 μM, ATP 10 μM) and under 50% on JAK2 kinase domain (JH1) (compound at 10 μM, ATP 10 μM).
In assay [1], `CNc1cc(Nc2cccnc2OC)nc2c(C(=O)N[C@H]3CC[C@@]3(C)O)cnn12` (stereo in doubt) [I-911, N-(2-hydroxy-2-methylcyclobutyl)-5-((2-methoxypyridin-3-yl)amino)-7-(methylamino)pyrazolo[1,5-a]pyrimidine-3-carboxamide] had a Kd of 1 to 10 nM. The “Tyk2 JH1% Inhibition @ 10 μM” value on Tyk2 kinase domain (DH1) (10 μM compound, 10 μM ATP) is “A (percent inhibition at 10 μM lower than 50)”. Besides, the “JAK2 JH1% Inhibition @ 10 μM” value on JAK2 kinase domain (JH1) (10 μM compound, 10 μM ATP) is on record as “A (percent inhibition at 10 μM lower than 50)”.
Turning to `CNc1cc(Nc2cccn([C@@H]3CCN(CCF)C3)c2=O)nc2c(C(=O)NC3CC3)cnn12` [I-933], in assay [1], the Kd was under 0.2 nM. In addition, the inhibition at 10 µM at Tyk2 kinase domain (DH1) (10 μM compound, 10 μM ATP) was under 50%; at JAK2 kinase domain (JH1) (10 μM compound, 10 μM ATP), under 50%.
`CNc1cc(Nc2cccc(N3CCCC3)n2)nc2c(C(=O)NC3CC3)cnn12` [I-382] showed a Kd in assay [1] of 0.2 to 1 nM. Also, the inhibition at 10 µM is under 50% on Tyk2 kinase domain (DH1) (compound at 10 μM, ATP 10 μM) and under 50% on JAK2 kinase domain (JH1) (compound at 10 μM, ATP 10 μM).
In assay [1], `CNc1cc(Nc2cccn(C3CCN(C)CC3)c2=O)nc2c(C(=O)N[C@@H]3CC[C@@H]3O)cnn12` [I-609] registered a Kd of under 0.2 nM. The inhibition at 10 µM at Tyk2 kinase domain (DH1) (compound at 10 μM, ATP 10 μM) is under 50%; at JAK2 kinase domain (JH1) (compound at 10 μM, ATP 10 μM), under 50%.
In turn, `CNc1cc(Nc2cccn([C@@H]3CCCC[C@@H]3OC)c2=O)nc2c(C(=O)NCC3(CO)CC3)cnn12` [I-991] displayed an equilibrium dissociation constant (Kd) in assay [1] of 1 to 10 nM. Moreover, the inhibition at 10 µM on Tyk2 kinase domain (DH1) (10 μM compound, 10 μM ATP) was under 50%; on JAK2 kinase domain (JH1) (10 μM compound, 10 μM ATP) it was under 50%.
`CNc1cc(Nc2cccc([C@H]3CCCOC3)n2)nc2c(C(=O)N[C@@H]3CC[C@@H]3O)cnn12` [I-604]: the Kd in assay [1] is under 0.2 nM. Further, the inhibition at 10 µM is under 50% on Tyk2 kinase domain (DH1) (compound at 10 μM, ATP 10 μM) and under 50% at JAK2 kinase domain (JH1) (compound at 10 μM, ATP 10 μM).
In turn, `CNc1cc(Nc2cc(Cl)cn(-c3cn(C4CC4)nc3C)c2=O)nc2c(C(N)=O)cnn12` [I-178] came in with a Kd in assay [1] of 0.2 to 1 nM. In addition, the inhibition at 10 µM was under 50% at Tyk2 kinase domain (DH1) (compound at 10 μM, ATP 10 μM) and under 50% at JAK2 kinase domain (JH1) (compound at 10 μM, ATP 10 μM).
Compound `CNc1cc(Nc2cccn(C3CCN(CC(F)F)CC3)c2=O)nc2c(C(N)=O)cnn12` [I-67] gave a Kd in assay [1] of under 0.2 nM. For the same compound, the inhibition at 10 µM at Tyk2 kinase domain (DH1) (compound at 10 μM, ATP 10 μM) is under 50%; at JAK2 kinase domain (JH1) (compound at 10 μM, ATP 10 μM), under 50%.
As for `CNc1cc(Nc2cccn([C@@H]3CCCOC3)c2=O)nc2c(C(=O)N[C@H]3[C@@H]4COC[C@@H]43)cnn12` [I-650], in assay [1], the Kd is 1 to 10 nM. The inhibition at 10 µM was under 50% at Tyk2 kinase domain (DH1) (compound at 10 μM, ATP 10 μM) and under 50% at JAK2 kinase domain (JH1) (compound at 10 μM, ATP 10 μM).
Compound `CNc1cc(Nc2cccn([C@H]3CC[C@H](OC)CC3)c2=O)nc2c(C(=O)NC[C@@H](C)CO)cnn12` [I-830] had a Kd in assay [1] of under 0.2 nM. In addition, the inhibition at 10 µM on Tyk2 kinase domain (DH1) (10 μM compound, 10 μM ATP) was under 50%; on JAK2 kinase domain (JH1) (10 μM compound, 10 μM ATP) it was under 50%.
`CNc1cc(Nc2cccn(C3CCN(C)CC3)c2=O)nc2c(C(=O)N[C@@H]3CC[C@@H]3O)cnn12` [I-690] displayed a Kd in assay [1] of 1 to 10 nM. For the same compound, at Tyk2 kinase domain (DH1) (compound at 10 μM, ATP 10 μM), the “Tyk2 JH1% Inhibition @ 10 μM” value is recorded as “A (percent inhibition at 10 μM lower than 50)”. The “JAK2 JH1% Inhibition @ 10 μM” value at JAK2 kinase domain (JH1) (compound at 10 μM, ATP 10 μM) was “A (percent inhibition at 10 μM lower than 50)”.
As to `CNc1cc(Nc2cccn([C@H]3CCC[C@@H](OC)C3)c2=O)nc2c(C(=O)NCC3(CO)CC3)cnn12` [I-928], the Kd in assay [1] was in the range of 0.2 to 1 nM. Further, the inhibition at 10 µM is under 50% at Tyk2 kinase domain (DH1) (10 μM compound, 10 μM ATP) and under 50% on JAK2 kinase domain (JH1) (10 μM compound, 10 μM ATP).
Consider `CNc1cc(-c2cn(CCN3CCOCC3)c3ncccc23)nc2c(C(N)=O)cnn12` [I-796, 7-(methylamino)-5-(1-(2-morpholinoethyl)-1H-pyrrolo[2,3-b]pyridin-3-yl)pyrazolo[1,5-a]pyrimidine-3-carboxamide], for which the Kd in assay [1] is under 0.2 nM. For the same compound, the inhibition at 10 µM on Tyk2 kinase domain (DH1) (compound at 10 μM, ATP 10 μM) was under 50%; at JAK2 kinase domain (JH1) (compound at 10 μM, ATP 10 μM), under 50%.
As to `CNc1cc(-c2cn(CCN3CCN(C)CC3)c3ncccc23)nc2c(C(=O)N[C@H]3C[C@H]3F)cnn12` [I-617], in assay [1], the Kd is under 0.2 nM. Also, the inhibition at 10 µM is under 50% at Tyk2 kinase domain (DH1) (compound at 10 μM, ATP 10 μM) and under 50% on JAK2 kinase domain (JH1) (compound at 10 μM, ATP 10 μM).
As for `CNc1cc(Nc2cc(Cl)cnc2O[C@H]2C[C@H](OC)C2)nc2c(C(N)=O)cnn12` [I-111], the dissociation constant (Kd) in assay [1] is 0.2 to 1 nM. Also, the inhibition at 10 µM was under 50% at Tyk2 kinase domain (DH1) (compound at 10 μM, ATP 10 μM) and under 50% on JAK2 kinase domain (JH1) (compound at 10 μM, ATP 10 μM).
In assay [1], `CNc1cc(Nc2cccn([C@H]3CC[C@H](O)CC3)c2=O)nc2c(C(=O)NC3CC3)cnn12` [I-167] came in with a Kd of under 0.2 nM. Besides, the inhibition at 10 µM on Tyk2 kinase domain (DH1) (compound at 10 μM, ATP 10 μM) was under 50%; on JAK2 kinase domain (JH1) (compound at 10 μM, ATP 10 μM), under 50%.
The compound `CNc1cc(Nc2cccn(C3=NC(C)(C)CS3)c2=O)nc2c(C(=O)NC3CC3)cnn12` [I-502] had a Kd in assay [1] of 0.2 to 1 nM. Also, the inhibition at 10 µM on Tyk2 kinase domain (DH1) (compound at 10 μM, ATP 10 μM) was under 50%; on JAK2 kinase domain (JH1) (compound at 10 μM, ATP 10 μM) it was under 50%.
`CNc1cc(Nc2cccn(-c3cnco3)c2=O)nc2c(C(=O)NC3CC3)cnn12` [I-714]: in assay [1], the Kd is under 0.2 nM. Further, the inhibition at 10 µM at Tyk2 kinase domain (DH1) (compound at 10 μM, ATP 10 μM) is under 50%; on JAK2 kinase domain (JH1) (compound at 10 μM, ATP 10 μM), under 50%.
In assay [1], `CNc1cc(Nc2cccnc2OC(CO)CO)nc2c(C(=O)NC3CCC3)cnn12` [I-201] displayed a dissociation constant Kd of under 0.2 nM. Further, the inhibition at 10 µM at Tyk2 kinase domain (DH1) (compound at 10 μM, ATP 10 μM) is under 50%; at JAK2 kinase domain (JH1) (compound at 10 μM, ATP 10 μM), under 50%.
Turning to `CNc1cc(Nc2cccn(-c3cnn(C)c3F)c2=O)nc2c(C(=O)N[C@H]3C[C@H]3F)cnn12` [I-719], the Kd in assay [1] is under 0.2 nM. The inhibition at 10 µM at Tyk2 kinase domain (DH1) (compound at 10 μM, ATP 10 μM) was under 50%; at JAK2 kinase domain (JH1) (compound at 10 μM, ATP 10 μM), under 50%.
`CNc1cc(Nc2cccn(-c3cncc(F)c3)c2=O)nc2c(C(=O)NC3CC3)cnn12` [I-967] displayed a Kd in assay [1] of under 0.2 nM. For the same compound, the inhibition at 10 µM was under 50% on Tyk2 kinase domain (DH1) (10 μM compound, 10 μM ATP) and under 50% at JAK2 kinase domain (JH1) (10 μM compound, 10 μM ATP).
`CNc1cc(-c2cn(C3CC3)c3ncccc23)nc2c(C(=O)N[C@@H]3CC[C@@H]3O)cnn12` [I-1081, 5-(1-cyclopropyl-1H-pyrrolo[2,3-b]pyridin-3-yl)-N-((1R,2S)-2-hydroxycyclobutyl)-7-(methylamino)pyrazolo[1,5-a]pyrimidine-3-carboxamide] had a Kd in assay [1] of 0.2 to 1 nM. Besides, the inhibition at 10 µM on Tyk2 kinase domain (DH1) (10 μM compound, 10 μM ATP) was under 50%; on JAK2 kinase domain (JH1) (10 μM compound, 10 μM ATP), under 50%.
`CNc1cc(Nc2cccn3cnnc23)nc2c(C(=O)N[C@H]3C[C@H]3F)cnn12` [I-660] yielded a Kd in assay [1] of under 0.2 nM. In addition, the inhibition at 10 µM at Tyk2 kinase domain (DH1) (compound at 10 μM, ATP 10 μM) is under 50%; at JAK2 kinase domain (JH1) (compound at 10 μM, ATP 10 μM) it was under 50%.
Compound `CNc1cc(Nc2cccn(-c3ccccn3)c2=O)nc2c(C(=O)N[C@@H]3CC[C@H]3O)cnn12` [I-972] registered a Kd in assay [1] of 0.2 to 1 nM. Also, the inhibition at 10 µM at Tyk2 kinase domain (DH1) (10 μM compound, 10 μM ATP) was under 50%; at JAK2 kinase domain (JH1) (10 μM compound, 10 μM ATP), under 50%.
`CNc1cc(Nc2cccn(-c3nc(C)co3)c2=O)nc2c(C(=O)N[C@@H]3CC[C@@H]3O)cnn12` [I-654] displayed a Kd in assay [1] of under 0.2 nM. Further, the inhibition at 10 µM at Tyk2 kinase domain (DH1) (compound at 10 μM, ATP 10 μM) is under 50%; at JAK2 kinase domain (JH1) (compound at 10 μM, ATP 10 μM) it was under 50%.
For the compound `CNc1cc(Nc2cccn(C3CCN(CCF)CC3)c2=O)nc2c(C(=O)N[C@@H]3CC[C@@H]3O)cnn12` [I-897], in assay [1], the Kd was in the range of 0.2 to 1 nM. Also, the inhibition at 10 µM on Tyk2 kinase domain (DH1) (10 μM compound, 10 μM ATP) was under 50%; at JAK2 kinase domain (JH1) (10 μM compound, 10 μM ATP) it was under 50%.
